# Assay results reported in PMC5398698, “Uncovering the molecular and physiological processes of anticancer leads binding human serum albumin: A physical insight into drug efficacy” (PLoS ONE, 2017).
# Where two headings read alike, the source gives them in different places.
# Tests used:
# plasma proteins = assay: Estimate of fraction bound to plasma proteins from association constants; set-up: species or system human; conditions: estimated with Kd / ([P]f + Kd)
# Text: The function of HSA as drug carrier may facilitate drug access to the action site and be related to drug safety issues. Application of HSA on drug delivery may therefore be important in anticancer therapy, which has been taken into account in estimating therapeutic outcomes, particularly for highly bound compounds (defined as < 5% free drug compounds in blood). The free to bound drug rates can be estimated by using the formula Kd / ([P]f + Kd) through approximating the free protein concentration as [P]f = [P]T − [L]T [41]. […] Therefore, the affinity determines the steady state concentration of unbound or exposed drug in the plasma, maintaining a concentration gradient between the intestinal lumen and plasma, which is considered as the only fraction exerting the bioactivity. […] Moreover, both hepatic uptake and glomerular filtration are directly proportional to the free drug fraction presented in the plasma while drugs are modulated by the affinity difference of the plasma and tissue proteins. If a drug is highly bound to HSA and has a high extraction raio, the binding promotes metabolism by transporting the drug to liver, resulting in the decrease of free drug fraction. On the other hand, if a drug has a low liver extraction ratio, metabolism will be decreased by high HSA binding. […]
# [1] = target: T1, Human serum albumin (HSA) (Homo sapiens, UniProt P02768); assay: Isothermal titration calorimetry (ITC) of leads binding HSA; conditions: 310 K
# T1 construct: purchased Sigma-Aldrich A3782
# Protocol: The calorimetry measurement was carried out by isothermal titration calorimetry (ITC) (TA Instruments, USA) at 310 K. HSA in different reaction buffers (0.01 M PBS and 0.025 M MES) were extensively dialyzed before titration. […] The titration was afterward started with continuously stirring at 250 rpm. The raw heat rate data were integrated under injection peaks to obtain the reaction heat of each injection after substracting dilution heat which was measured by injecting with a blank control titration. The calculated heat changes were analyzed using the NANOanalyze software (TA Instruments, USA) and replotted with Origin 8.5. The free energy change (ΔG), enthalpy change (ΔH) and entropy change (ΔS) were calculated according to the thermodynamic formulas below: ΔG=−RTlnKA=ΔH−TΔS
# Where KA is the association constant at the absolute temperature T (310 K) and R represents the gas constant (8.3151 J mol^-1K^-1).
# [2] = target: T1, Human serum albumin (HSA); assay: Steady-state fluorescence quenching of HSA by anticancer leads; type: binding; conditions: for ΔG: temperature-dependent fluorescence quenching
# Protocol: Steady-state fluorescence spectra were recorded on an Eclipse fluorescence spectrophotometer (Agilent Cary, USA) with a 1 cm path length quartz cuvette at 293 K and 298 K, respectively. Sample temperature was kept within ± 0.2 degree by recycled water throughout the experiment. The excitation and emission band passes were all set at 5 nm by keeping the excitation wavelength at 290 nm to achieve maximum fluorescence emission. The emission spectra was measured in the region of 305–450 nm, and the fluorescence intensity at peak position 340 nm was extracted for further analysis. HSA was diluted from stock solution with reaction buffer to a concentration of 10 μM for each quenching experiment. Titration was performed by successive addition of 1 mM anticancer leads into quartz cuvette, and the minor intensity decrease due to volume change was corrected by the control experiment.
# In Fluorescence quenching, the inner filter effect (IFE) is of importance due to its effect on the emission intensity. One of the biggest causes of the IFE is the re-absorption of the emitted light in the excitation and emission region. It is an important issue that these effects cause severe underestimation of the fluorescence intensity measured because the concentration of the quencher increases when a Stern-Volmer analysis is carried out, and therefore the ability of the quencher to absorb the emitted light will also increase.
# Where Aem and Aex represent the absorbance of small moecule at emission and excitation wavelength, respectively. F0 and Fc represent the observed fluorescence intensity and corrected fluorescence intensity, respectively.
# In an attempt to gain insight into the molecular mechanism of HSA association, we have determined the binding mechanism, binding constant, binding site, and the number of binding sites. […] (1) Where F and F0 is the steady state fluorescence intensity in the presence and absence of quencher, respectively; Kq, τ0 and [Q] is the quenching rate constant, the average lifetime of the molecule without quencher and the concentration of quencher, respectively.
# Modified Stern-Volmer plots are shown in Fig 3C and 3D, showing good linearity to modified Stern-Volmer equation: log[(F0−F)/F]=logKA+nlog[Q] (2)
# F0−F/F0=Bmax(KA[Q])^h/1+(KA[Q])^h+Pnsb×[Q] (3)
# Where F and F0 are the steady state fluorescence intensity in the presence and absence of quencher, respectively; [Q] is the concentration of quencher, Bmax is the maximum independent binding site classes, KA is the effective binding affinity; h is the Hill coefficient that describes the degree of ligand binding cooperativity and Pnsb is the nonspecific binding coefficient.
# Usually, the types of interaction forces between small molecules and macromolecules mainly include hydrogen bonds, van der Waals forces, electrostatic interactions and hydrophobic interactions. To estimate the binding mode, the thermodynamic parameters, ΔH, ΔS and ΔG are often considered. On the basis of the characteristic signs of the thermodynamic parameters, the interaction forces between small molecule and protein can be assigned to hydrophobic interaction (ΔH > 0, ΔS > 0), van der Waals force (ΔH < 0, ΔS < 0) and electrostatic attraction (ΔH < 0, ΔS > 0). The entropy and enthalpy can be considered constant at a constant temperture, which is regulated by the van’t Hoff equation: lnKA=−ΔH/RT+ΔS/R (4)
# [3] = target: T1, Human serum albumin (HSA); assay: Fluorescence resonance energy transfer (FRET) distance HSA W214 to lead; type: binding; conditions: Forster theory; k^2 = 2/3, N = 1.36, Φ = 0.15
# Text: Fluorescence resonance energy transfer (FRET) occurs when the UV absorption spectrum of small molecule (acceptor) overlaps with the fluorescence emission spectrum of fluoreophore (donor). The fluorescence emission peak of HSA mostly locates in the range of the UV-vis absorption spectra of the two anticancer leads (Fig 5A and 5B). This indicates the possibility of FRET occuring between HSA and anticancer leads. According to Forster’s non-radiative energy transfer theory, the distance r between donor W214 of HSA and the acceptor of small molecule is determined by the relationship below: E=1−F/F0=R0^6/R0^6+r^6 (5) where E is the energy transfer efficiency; F and F0 are the fluorescence intensity in the presence and absence of quencher. […] In this case here, k^2 = 2/3 is for random orientation as in fluid solution, N = 1.36, Φ = 0.15, and J is calculated as: J=∑F(λ)ε(λ)λ^4Δλ/∑F(λ)Δλ (7) where F(λ) is the fluorescence intensity of the fluorescence donor of wavelength λ; and ε(λ) is the molar absorption coefficient calculated by Lambert-Beer relationship ε(λ) = A(λ)/cl at wavelength λ. The integration step was chosen to be the scanning data interval of 1 nm.
# [4] = target: T1, Human serum albumin (HSA); assay: SPR binding kinetic measurement on immobilized HSA
# Protocol: Binding kinetic measurement was performed using Reichert 4-chanel SPR instrument Reichert4SPR (Reichert, USA). HSA was immobilized on carboxymethyl dextran chip at the condition of 0.1 mg/mL protein in 10 mM sodium acetate (pH 4.5). The final density is about 12,000 RU and flow rate is 20 μl/min. During immobilizing, the sensor chip was preconditioned with 3-min injection of double diluted water. Thereafter, the first flow cell surface was activated through using 0.05 M N-hydroxysuccinimide (NHS)/0.2 M 1-ethyl-3-(3-dimethylaminopropyl)carbodiimide hydrochloride (EDC) for 7 min, and then functionalized by injecting a solution of HSA (0.1 mg/mL) in 10 mM sodium acetate buffer (pH 4.5) for 20 min. Finally, unreacted NHS groups were deactivated with 1 M ethanolamine (pH 8.5) for 10 min. Simultaneously, the control flow cell was treated using the same conditions as described above. […] Final data obtained were corrected for instrumental and bulk artifacts by double referencing to a control sensor chip surface and blank buffer injection. The binding responses were concentration-dependent and dissociation constant KD values were derived from 1:1 kinetic model as well as steady state analysis using TraceDrawer software (Reichert, USA).
# T1 sequence (P02768 25-609): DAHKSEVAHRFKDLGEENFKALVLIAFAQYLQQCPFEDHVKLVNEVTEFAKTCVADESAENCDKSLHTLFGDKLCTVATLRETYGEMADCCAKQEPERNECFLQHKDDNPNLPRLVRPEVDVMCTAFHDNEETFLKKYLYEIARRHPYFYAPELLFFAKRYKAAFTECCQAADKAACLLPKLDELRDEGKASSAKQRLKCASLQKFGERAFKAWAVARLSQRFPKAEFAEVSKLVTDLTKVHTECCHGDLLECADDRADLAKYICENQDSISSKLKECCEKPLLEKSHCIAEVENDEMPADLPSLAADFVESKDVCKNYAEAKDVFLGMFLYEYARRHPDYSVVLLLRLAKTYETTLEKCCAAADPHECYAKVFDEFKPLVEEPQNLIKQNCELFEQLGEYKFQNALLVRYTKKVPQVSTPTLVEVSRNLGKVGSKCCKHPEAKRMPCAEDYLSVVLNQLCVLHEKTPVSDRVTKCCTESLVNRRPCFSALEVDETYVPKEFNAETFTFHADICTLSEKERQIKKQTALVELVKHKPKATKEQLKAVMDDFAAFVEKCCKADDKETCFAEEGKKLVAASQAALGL
smiles,measurement,setting,value
CC(=O)OCCC(C)CCC=C(C)C (centres unmarked) [NSC48693],compound bound to plasma proteins,plasma proteins,over 98%
same,stoichiometry number,[1],0.94 ± 0.06
same,ΔG,[1],-6.898 kcal/mol
same,ΔH,[1],-5.581 ± 0.605 kcal/mol
same,ΔS,[1],17.81 J mol^-1 K^-1
same,binding constant (KA),[1]; one-site independent model,7.29 ± 2.68 × 10^4 M^-1
same,"n (reaction stoichiometric number, modified Stern-Volmer)",[2]; 293 K,0.91 ± 0.013
same,binding constant KA (modified Stern-Volmer),"[2]; 293 K, fit to Eq (2)",3.31 ± 0.16 × 10^4 M^-1
same,Hill coefficient h (nonlinear regression fitting),"[2]; 293 K, one class of binding sites",~1.0
same,ΔG,[2]; T 293 K,-5.614 kcal/mol
same,ΔG,[2]; T 298 K,-5.636 kcal/mol
same,n obtained by Hill equation,[2]; as quoted in the ITC comparison,0.91
same,quenching rate constant Kq (Stern-Volmer),"[2]; fluorescence lifetime of tryptophan in HSA around 10^-8 s, 10 μM HSA",1.36 ± 0.016 × 10^12 M^-1s^-1
same,ΔH,"[2]; van't Hoff, 293 K and 298 K",-4.548 kcal/mol
same,ΔS,"[2]; van't Hoff, 293 K and 298 K",15.27 J mol^-1 K^-1
same,donor-acceptor distance r between HSA and lead,[3],3.65 nm
same,dissociation rate slower than that of NSC290956,[4],approximately 5 fold
same,kinetic behavior,[4]; SPR sensorgram shape,fast-on and slow-off
same,Ka (association rate constant),"[4]; SPR, 1:1 kinetic model",2410 M⁻¹ s⁻¹
same,koff (dissociation rate constant),"[4]; SPR, 1:1 kinetic model",0.0333 s⁻¹
same,Kd,"[4]; SPR, 1:1 kinetic model, read-out: KD (dividing kinetic parameters, 1:1 model)",13.8 µM
same,Kd,"[4]; SPR, steady-state phase data, read-out: Steady State KD",12.3 µM
same,binding affinity to HSA larger than that of NSC290956,[4]; as measured with different experimental methods,3~8 fold
